Like-named read-outs stand apart in the source and are kept apart here. Where a SMILES comes first, the peptide text is derived from it. [ ]: non-standard residue; d: D form. The star is where a group is joined. Hyp = O=C(O)[C@@H]1C[C@@H](O)CN1; pGlu = O=C1CC[C@@H](C(=O)O)N1; Bn = c1ccc(C*)cc1
What was measured:
[1] = oral administration; needs intravenous administration; cited from earlier work
[2] = target: T1, angiotensin conversion enzyme (Oryctolagus cuniculus, UniProt P12822); assay: Inhibition of the angiotensin conversion enzyme in vitro (method of Cushman and Cheung); assay type: biochemical; settings: enzyme isolated from rabbit lungs, read-out: I50
T1 construct: the enzyme isolated from rabbit lungs; from tissue; host or cells: rabbit lung
T1 sequence (P12822 34-1310): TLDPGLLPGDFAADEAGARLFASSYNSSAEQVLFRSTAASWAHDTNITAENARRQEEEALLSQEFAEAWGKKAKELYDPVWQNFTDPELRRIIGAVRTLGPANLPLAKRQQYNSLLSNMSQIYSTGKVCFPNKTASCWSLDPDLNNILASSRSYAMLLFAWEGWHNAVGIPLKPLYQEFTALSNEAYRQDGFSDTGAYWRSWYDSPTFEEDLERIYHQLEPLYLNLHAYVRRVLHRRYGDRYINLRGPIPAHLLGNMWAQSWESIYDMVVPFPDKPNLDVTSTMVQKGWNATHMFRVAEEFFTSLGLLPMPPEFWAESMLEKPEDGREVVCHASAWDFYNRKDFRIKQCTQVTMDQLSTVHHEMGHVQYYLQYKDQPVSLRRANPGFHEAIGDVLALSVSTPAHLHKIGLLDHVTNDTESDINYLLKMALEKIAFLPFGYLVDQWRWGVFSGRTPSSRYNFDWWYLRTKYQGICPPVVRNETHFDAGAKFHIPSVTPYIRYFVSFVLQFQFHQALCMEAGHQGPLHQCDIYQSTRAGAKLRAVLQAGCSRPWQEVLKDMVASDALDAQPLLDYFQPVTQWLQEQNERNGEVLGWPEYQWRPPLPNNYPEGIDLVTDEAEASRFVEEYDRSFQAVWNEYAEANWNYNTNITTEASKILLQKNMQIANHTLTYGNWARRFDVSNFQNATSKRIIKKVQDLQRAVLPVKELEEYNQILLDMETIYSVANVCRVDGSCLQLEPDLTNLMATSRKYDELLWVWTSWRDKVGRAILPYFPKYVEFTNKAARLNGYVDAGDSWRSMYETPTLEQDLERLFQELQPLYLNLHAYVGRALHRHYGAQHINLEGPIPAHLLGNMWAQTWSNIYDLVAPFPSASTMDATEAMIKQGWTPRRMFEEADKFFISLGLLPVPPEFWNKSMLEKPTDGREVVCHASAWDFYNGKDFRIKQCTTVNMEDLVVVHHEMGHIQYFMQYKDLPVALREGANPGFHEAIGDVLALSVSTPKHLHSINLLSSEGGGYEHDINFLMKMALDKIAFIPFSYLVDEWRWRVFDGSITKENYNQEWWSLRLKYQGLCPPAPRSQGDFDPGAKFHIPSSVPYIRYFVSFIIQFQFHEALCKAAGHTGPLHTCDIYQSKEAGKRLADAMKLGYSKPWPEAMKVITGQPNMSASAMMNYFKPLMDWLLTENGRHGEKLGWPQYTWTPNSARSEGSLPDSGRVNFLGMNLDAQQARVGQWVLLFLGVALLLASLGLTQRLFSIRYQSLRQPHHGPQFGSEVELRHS
Procedure: The inhibition of the angiotensin conversion enzyme by the compounds of general formula (I) is measured in vitro by the enzyme isolated from rabbit lungs by the method of Cushman and Cheung [Biochem. Pharmacol., 20, 1637 (1971)].

[3] = target: T1, angiotensin conversion enzyme; settings: literature value given in Table 1; read-out: I50 (lit.); cited from earlier work

## CC[C@H](C)[C@H](NC(=O)[C@H](CCC(N)=O)NC(=O)[C@@H]1CCCN1C(=O)[C@H](CCCNC(=N)N)NC(=O)[C@@H]1CCCN1C(=O)[C@H](Cc1c[nH]c2ccccc12)NC(=O)[C@@H]1CCC(=O)N1)C(=O)N1CCC[C@H]1C(=O)N1CCC[C@H]1C(=O)O [teprotide]
[1]
  oral activity: inactive orally

## C[C@H](NC(=O)[C@H](Cc1ccccc1)NC(=O)[C@H](CCCCN)NC(=O)[C@@H]1CCC(=O)N1)C(=O)N1C[C@H](OCc2ccccc2)C[C@H]1C(=O)O [Glp--Lys--Phe--Ala--Hyp(OBz), pyroglutamyl-lysyl-phenylalanyl-alanyl-(4-benzyloxy)-proline] ([pGlu]KFA[Hyp](Bn)-OH)
[2]
  IC50: 110 nM

## C[C@H](NC(=O)[C@H](Cc1ccccc1)NC(=O)[C@H](CCCCN)NC(=O)[C@@H]1CCC(=O)N1)C(=O)N1CCC[C@H]1C(=O)O [Glp--Lys--Phe--Ala--Pro] ([pGlu]KFAP-OH)
[2]
  IC50: 130 nM
[3]
  IC50: 70 nM

## C[C@H](NC(=O)C(Cc1ccccc1)C(=O)N[C@H](CCCCN)C(=O)NC1CCC(=O)N1)C(=O)N1CCC[C@H]1C(=O)O (stereo partly drawn) [gGlp--D-Lys--mPhe--Ala--Pro, gem-pyroglutamyl-D-lysyl-(R,S)-malonyl-(2-benzyl)-alanyl-proline]
[2]
  IC50: 85000 nM
